A word on the IC50: it is the point on the concentration scale where inhibition reaches its midpoint. Broadly, the CC50 is the concentration at which the toxic effect on the cells reaches its halfway point.

Data set [1] in a line: Selectivity index, ratio of CC50 for HIV1 human TZM-bl cells to EC50 for HIV1 ENV pseudotype from the lab-adapted CXCR4-tropic HIV-1 HXB-2 infected in human TZM-bl cells. The class given is toxicity, cell-based. To be noted: for selectivity ratio: TZM-bl cells, read-out: Selectivity Index.
In data set [2] the test system is Human immunodeficiency virus 1. Kind of data set: Antiviral activity against HIV1 Env pseudotype from the lab-adapted CXCR4-tropic HIV-1 HXB-2 infected in human TZM-bl cells preincubated for 30 min followed by viral infection and measured after 3 days by luciferase-based single-cycle infection assay. It is filed as functional, organism-based.
A further data set relates to TZM. Kind of data set: (§1) Cytotoxicity against human TZM-bl cells assessed as reduction in cell viability incubated for 3 days by MTS assay. To be noted: tzm, 72 h, time 3 day. The class given is toxicity, cell-based. For orientation: Tetrazolium dyes change colour on reduction, which living cells bring about.
A short description of data set [3]: as §1. It is filed as toxicity, cell-based. The conditions noted are these: TZM-bl cells, time 3 day.
The subject of data set [4] is Human immunodeficiency virus 1. As to the kind of experiment: microbe, parasite or virus in culture. To be noted: Human immunodeficiency virus 1, HXB-2 subtype A, U87.CD4.CXCR4, 72 h.
[5] abbreviates: Human immunodeficiency virus 1, HXB-2, TZM-bl, read-out: IC50.

Bounds are passed on as bounds.

Turning to `NC[C@H](NC(=O)c1ccc(-c2cc(F)c(Cl)c(F)c2)[nH]1)c1nc(CCO)cs1`, the selectivity ratio in data set [1] came to 218. The IC50 in data set [2] (setting [5]) was found to be 0.15 µM.
For `NC[C@@H](NC(=O)c1ccc(-c2ccc(C(F)(F)F)c(F)c2)[nH]1)c1ncc(C(O)CO)s1` (some centres not stated), the CC50 in the data set on TZM (read-out: CC50) was 70.5 µM. Also, in data set [1], the selectivity ratio was determined as 119. In addition, the IC50 in data set [2] (setting [5]) amounted to 0.59 µM.
For the molecule `NC[C@@H](NC(=O)c1ccc(-c2ccc(C(F)(F)F)c(F)c2)[nH]1)c1nc(C(=O)O)cs1`, the CC50 result in the data set with TZM is given as “Not Determined(Insoluble)”. Further, the “Selectivity Index” value in data set [1] is listed as “Not Determined(Insoluble)”. In addition, the concentration for half-maximal inhibition (IC50) result in data set [2] (tzm-bl) is given as “Not Determined(Insoluble)”.
`CC(CN)(NC(=O)c1ccc(-c2cc(F)c(Cl)c(F)c2)[nH]1)c1nc(CO)cs1` (racemic): in the data set on TZM (read-out: CC50), the CC50 was determined as 47.7 µM. Besides, in data set [1], the selectivity ratio came to 18.3. Also, the IC50 in data set [2] (setting [5]) is 2.6 µM.
`N#Cc1ccc(-c2ccc(C(=O)N[C@H](CN)c3nc(CO)cs3)[nH]2)cc1`: in the data set with TZM (read-out: CC50), the CC50 was over 82 µM. Also, in data set [1], the “Selectivity Index” value is given as “Not Determined(Insoluble)”. The IC50 in data set [2] (setting [5]) is over 16 µM.
`NC[C@@H](NC(=O)c1ccc(-c2ccc(C(F)(F)F)cc2)[nH]1)c1ncc(COCC(O)CO)s1` (some centres not stated): in data set [3], the half-maximal cytotoxic concentration (CC50) at 72 h stood at 80 µM. In addition, the selectivity ratio in data set [1] was 38. The IC50 in data set [2] (setting [5]) turned out to be 2.1 µM.
On to `CC(C)(N)[C@H](NC(=O)c1ccc(-c2ccc(C(F)(F)F)cc2)[nH]1)c1nc(CO)cs1`, for which the CC50 in the data set with TZM (read-out: CC50) is 17.5 µM. In addition, the IC50 in data set [2] (setting [5]) was 0.13 µM.
Take `NC[C@H](NC(=O)c1ccc(-c2ccc(C(F)(F)F)cc2)[nH]1)c1ncc(COCC(O)CO)s1` (some centres not stated): the CC50 with TZM (read-out: CC50) is over 61.9 µM. For the same molecule, the “Selectivity Index” value in data set [1] was “Not Determined(Insoluble)”. For the same molecule, the IC50 in data set [2] (setting [5]) is over 13 µM.
As to `NC[C@H](NC(=O)c1ccc(-c2ccc(C(F)(F)F)c(F)c2)[nH]1)c1nc(C(N)=O)cs1`, in the data set on TZM (read-out: CC50), the CC50 was over 52 µM. In addition, the selectivity ratio in data set [1] worked out at 34.2. The IC50 in data set [2] (setting [5]) was over 10 µM.
Turning to `NC[C@@H](NC(=O)c1ccc(-c2ccc(C(F)(F)F)c(F)c2)[nH]1)c1nc(C(O)CO)cs1` (some centres not stated), the CC50 in the data set on TZM (read-out: CC50) came out at 56.3 µM. In data set [1], the selectivity ratio is 23.4. Also, the IC50 in data set [2] (setting [5]) is 2.4 µM.
Consider `NC[C@@H](NC(=O)c1ccc(-c2ccc(C(F)(F)F)cc2C(F)(F)F)[nH]1)c1nc(CO)cs1`, for which the CC50 in the data set on TZM (read-out: CC50) turned out to be 37.6 µM. Besides, in data set [1], the selectivity ratio is 5.9. Further, in data set [2] (setting [5]), the IC50 amounted to 6.3 µM.
In the case of `NC[C@H](NC(=O)c1ccc(-c2ccc(C(F)(F)F)c(F)c2)[nH]1)c1ncc(C(O)CO)s1` (some centres not stated), in the data set with TZM (read-out: CC50), the CC50 stood at 98 µM. In addition, the selectivity ratio in data set [1] was determined as 15.8. The IC50 in data set [2] (setting [5]) was found to be 6.2 µM.
For `NC[C@H](NC(=O)c1ccc(-c2ccc(C(F)(F)F)c(F)c2)[nH]1)c1nc(C(=O)O)cs1`, the CC50 entry with TZM is listed as “Not Determined(Insoluble)”. Also, the “Selectivity Index” value in data set [1] is “Not Determined(Insoluble)”. Also, the IC50 entry in data set [2] (tzm-bl) was “Not Determined(Insoluble)”.
On to `Cc1cc(-c2ccc(C(F)(F)F)c(F)c2)[nH]c1C(=O)N[C@H](CN)c1ncc(CO)s1`, for which the CC50 with TZM (read-out: CC50) turned out to be 10.4 µM. The IC50 in data set [2] (setting [5]) was determined as 0.21 µM.
Regarding `NC[C@@H](NC(=O)c1ccc(-c2ccc(C(F)(F)F)c(F)c2)[nH]1)c1nc(CCCO)cs1`, in the data set with TZM (read-out: CC50), the cytotoxic concentration (CC50) is 38 µM. In addition, the selectivity ratio in data set [1] was determined as 10.8. In addition, the IC50 in data set [2] (setting [5]) stood at 3.5 µM.
For `N#Cc1ccc(-c2ccc(C(=O)N[C@@H](CN)c3nc(CO)cs3)[nH]2)cc1`, in data set [1], the “Selectivity Index” value is recorded as “Not Determined(Insoluble)”. For the same molecule, the IC50 in data set [2] (setting [5]) is over 16 µM.
Regarding `Cc1cc(-c2ccc(C(F)(F)F)c(F)c2)[nH]c1C(=O)N[C@H](CN)c1nc(CO)cs1`, in the data set with TZM (read-out: CC50), the CC50 was 14.1 µM. For the same molecule, the selectivity ratio in data set [1] amounted to 20.6. In data set [2] (setting [5]), the IC50 stood at 0.57 µM.
Turning to `CC(C)(N)[C@@H](NC(=O)c1ccc(-c2cc(F)c(Cl)c(F)c2)[nH]1)c1nc(CO)cs1`, the CC50 with TZM (read-out: CC50) was 15.8 µM. The selectivity ratio in data set [1] was found to be 135. For the same molecule, in data set [2] (setting [5]), the IC50 turned out to be 0.15 µM.
For `NC[C@H](NC(=O)c1ccc(-c2ccc(C(F)(F)F)cc2F)[nH]1)c1nc(CCO)cs1`, the CC50 in the data set with TZM (read-out: CC50) came to 39.6 µM.
Turning to `NC[C@H](NC(=O)c1ccc(-c2ccc(C(F)(F)F)cc2F)[nH]1)c1nc(CO)cs1`, the CC50 in the data set with TZM (read-out: CC50) stood at 25.7 µM. The selectivity ratio in data set [1] was 137. For the same molecule, the IC50 in data set [2] (setting [5]) was 0.187 µM.
Regarding `CC(C)(N)[C@H](NC(=O)c1ccc(-c2ccc(C(F)(F)F)cc2)[nH]1)c1ncc(CO)s1`, in the data set on TZM (read-out: CC50), the CC50 worked out at 25.1 µM. Moreover, in data set [1], the selectivity ratio was 109. For the same molecule, in data set [2] (setting [5]), the IC50 came out at 0.23 µM.
Consider `NC[C@H](NC(=O)c1ccc(-c2ccc(C(F)(F)F)c(F)c2)[nH]1)c1nc(C(O)CO)cs1` (some centres not stated), for which the CC50 in the data set with TZM (read-out: CC50) came out at 72.4 µM. Further, the selectivity ratio in data set [1] came out at 132. In addition, the IC50 in data set [2] (setting [5]) is 0.55 µM.
As for `NC[C@@H](NC(=O)c1ccc(-c2ccc(C(F)(F)F)cc2F)[nH]1)c1nc(CO)cs1`, the CC50 in the data set on TZM (read-out: CC50) was found to be 26.8 µM. Besides, the selectivity ratio in data set [1] was determined as 43.9. Besides, the IC50 in data set [2] (setting [5]) is 0.61 µM.
For `Cc1cc(-c2ccc(C(F)(F)F)c(F)c2)[nH]c1C(=O)N[C@@H](CN)c1ncc(CO)s1`, in that order: 10.3 µM, 49.5 and 0.15 µM.
Turning to `CC(C)(N)[C@@H](NC(=O)c1ccc(-c2ccc(C(F)(F)F)cc2)[nH]1)c1nc(CO)cs1`, the CC50 in the data set on TZM (read-out: CC50) was determined as 19.9 µM. The selectivity ratio in data set [1] turned out to be 15.3. Moreover, the IC50 in data set [2] (setting [5]) stood at 1.3 µM.
On to `COC(=O)c1csc([C@H](CN)NC(=O)c2ccc(-c3ccc(C(F)(F)F)c(F)c3)[nH]2)n1`, for which the CC50 with TZM (read-out: CC50) was determined as 41.6 µM. Besides, the selectivity ratio in data set [1] turned out to be 14.3. Besides, the IC50 in data set [2] (setting [5]) came to 2.9 µM.
Consider `CC(C)(N)[C@H](NC(=O)c1ccc(-c2cc(F)c(Cl)c(F)c2)[nH]1)c1nc(CO)cs1`, for which the CC50 with TZM (read-out: CC50) was 16 µM. Also, the selectivity ratio in data set [1] turned out to be 105. The IC50 in data set [2] (setting [5]) turned out to be 0.12 µM.
`CC(C)(N)[C@@H](NC(=O)c1ccc(-c2ccc(C(F)(F)F)cc2)[nH]1)c1ncc(CO)s1`: in the data set on TZM (read-out: CC50), the CC50 was 23.1 µM. The selectivity ratio in data set [1] was found to be 34. In data set [2] (setting [5]), the IC50 stood at 0.68 µM.
`NC[C@@H](NC(=O)c1ccc(-c2ccc(C(F)(F)F)cc2)[nH]1)c1ncc(CO)s1` returned an IC50 in data set [4] of 0.11 µM.
For `NC[C@H](NC(=O)c1ccc(-c2ccc(C(F)(F)F)cc2C(F)(F)F)[nH]1)c1nc(CO)cs1`, the CC50 with TZM (read-out: CC50) worked out at 33.4 µM. Also, the selectivity ratio in data set [1] amounted to 7.9. Moreover, the IC50 in data set [2] (setting [5]) stood at 4.2 µM.
For `NC[C@@H](NC(=O)c1ccc(-c2ccc(C(F)(F)F)c(F)c2)[nH]1)c1nc(C(N)=O)cs1`, the CC50 in the data set on TZM (read-out: CC50) came out at 25.9 µM. Moreover, the selectivity ratio in data set [1] is 11.3. In addition, in data set [2] (setting [5]), the IC50 came out at 2.3 µM.
Regarding `COC(=O)c1csc([C@@H](CN)NC(=O)c2ccc(-c3ccc(C(F)(F)F)c(F)c3)[nH]2)n1`, the CC50 in the data set with TZM (read-out: CC50) was 23.4 µM. Moreover, the selectivity ratio in data set [1] is 4.8. Besides, the IC50 in data set [2] (setting [5]) stood at 4.9 µM.
In the case of `NC[C@H](NC(=O)c1ccc(-c2ccc(C(F)(F)F)c(F)c2)[nH]1)c1nc(CCCO)cs1`, in the data set on TZM (read-out: CC50), the CC50 was determined as 22.6 µM. For the same molecule, in data set [1], the selectivity ratio was 90.4. Besides, in data set [2] (setting [5]), the IC50 was 0.25 µM.
With `Cc1cc(-c2ccc(C(F)(F)F)c(F)c2)[nH]c1C(=O)N[C@@H](CN)c1nc(CO)cs1`, the CC50 with TZM (read-out: CC50) came to 18.5 µM. For the same molecule, in data set [1], the selectivity ratio was 24.7. Besides, the IC50 in data set [2] (setting [5]) came out at 0.54 µM.
For the molecule `NC[C@@H](NC(=O)c1ccc(-c2ccc(C(F)(F)F)c(F)c2)[nH]1)c1nc(CCO)cs1`, in the data set on TZM (read-out: CC50), the CC50 turned out to be 24.2 µM. Besides, the selectivity ratio in data set [1] worked out at 47.4. Further, in data set [2] (setting [5]), the concentration for half-maximal inhibition (IC50) stood at 0.51 µM.
Turning to `NC[C@H](NC(=O)c1ccc(-c2ccc(C(F)(F)F)c(F)c2)[nH]1)c1nc(CCO)cs1`, the CC50 in the data set with TZM (read-out: CC50) worked out at 24.4 µM. Besides, the selectivity ratio in data set [1] is 122. Moreover, the IC50 in data set [2] (setting [5]) was 0.2 µM.
For `NC[C@@H](NC(=O)c1ccc(-c2cc(F)c(Cl)c(F)c2)[nH]1)c1nc(CCO)cs1`, in that order: 32.8 µM, 33.5 and 0.98 µM.
The like results for `CC(CN)(NC(=O)c1ccc(-c2ccc(C(F)(F)F)c(F)c2)[nH]1)c1nc(CO)cs1` (racemic) were, in that order, 45.3 µM, 28 and 1.6 µM.
Consider `NC[C@@H](NC(=O)c1ccc(-c2ccc(C(F)(F)F)cc2F)[nH]1)c1nc(CCO)cs1`, for which, in the data set with TZM (read-out: CC50), the CC50 worked out at 23.4 µM.

(Values after ChEMBL document CHEMBL5230138, “Design, synthesis, and antiviral activity of a series of CD4-mimetic small-molecule HIV-1 entry inhibitors” (Bioorg Med Chem, 2021).)
